± gives the expanded uncertainty stated by the source.
Assay: xn = mol fraction of the nth substance listed
Details: 100 kPa, Liquid; for viscosity: Falling or rolling sphere viscometry; for mass density: Vibrating tube method

Question: Which viscosity (323.15 K, x1 = 0.0316) does the source give for `CCCCC[N+]1(C)CCOCC1.[Br-]` [4-methyl-4-pentylmorpholinium bromide] + O here?
Answer: 1.023 ± 0.1 mPa·s

Question: What about the viscosity (323.15 K, x1 = 0.0695) of the same molecule?
Answer: 1.95 ± 0.2 mPa·s

Question: What about the viscosity (323.15 K, x1 = 0.0965) of the same molecule?
Answer: 2.963 ± 0.3 mPa·s

Question: What about the viscosity (323.15 K, x1 = 0.1196) of the same molecule?
Answer: 4.065 ± 0.41 mPa·s

Question: And the viscosity (323.15 K, x1 = 0.1522)?
Answer: 6.349 ± 0.64 mPa·s

Question: And the viscosity (323.15 K, x1 = 0.2054)?
Answer: 11.9 ± 1.2 mPa·s

Question: And the viscosity (323.15 K, x1 = 0.219)?
Answer: 13.89 ± 1.4 mPa·s

Question: And the viscosity (323.15 K, x1 = 0.2438)?
Answer: 18.52 ± 1.9 mPa·s

Question: What about the viscosity (323.15 K, x1 = 0.2754) of the same molecule?
Answer: 26.85 ± 2.7 mPa·s

Question: And the mass density (323.15 K, x1 = 0.0316)?
Answer: 1059.7 ± 1.1 kg/m3

Question: And the mass density (323.15 K, x1 = 0.0695)?
Answer: 1111.5 ± 1 kg/m3

Question: And the mass density (323.15 K, x1 = 0.0965)?
Answer: 1137 ± 1 kg/m3

Question: What about the mass density (323.15 K, x1 = 0.1196) of the same molecule?
Answer: 1152.9 ± 1 kg/m3

Question: And the mass density (323.15 K, x1 = 0.1522)?
Answer: 1170.6 ± 1.1 kg/m3

Question: And the mass density (323.15 K, x1 = 0.2054)?
Answer: 1191.3 ± 1.1 kg/m3

Question: And the mass density (323.15 K, x1 = 0.219)?
Answer: 1195.4 ± 1.2 kg/m3

Question: What about the mass density (323.15 K, x1 = 0.2438) of the same molecule?
Answer: 1202.2 ± 1.2 kg/m3

Question: What about the mass density (323.15 K, x1 = 0.2754) of the same molecule?
Answer: 1209.4 ± 1.3 kg/m3

Question: What about the viscosity (328.15 K, x1 = 0.0316) of the same molecule?
Answer: 0.908 ± 0.091 mPa·s

Question: And the viscosity (328.15 K, x1 = 0.0695)?
Answer: 1.703 ± 0.17 mPa·s

Question: What about the viscosity (328.15 K, x1 = 0.0965) of the same molecule?
Answer: 2.557 ± 0.26 mPa·s

Question: And the viscosity (328.15 K, x1 = 0.1196)?
Answer: 3.475 ± 0.35 mPa·s

Question: What about the viscosity (328.15 K, x1 = 0.1522) of the same molecule?
Answer: 5.382 ± 0.54 mPa·s

Question: And the viscosity (328.15 K, x1 = 0.2054)?
Answer: 9.86 ± 0.99 mPa·s

Question: And the viscosity (328.15 K, x1 = 0.219)?
Answer: 11.44 ± 1.1 mPa·s

Question: What about the viscosity (328.15 K, x1 = 0.2438) of the same molecule?
Answer: 15.02 ± 1.5 mPa·s

Question: What about the viscosity (328.15 K, x1 = 0.2754) of the same molecule?
Answer: 21.35 ± 2.1 mPa·s

Question: And the mass density (328.15 K, x1 = 0.0316)?
Answer: 1056.6 ± 1.1 kg/m3

Question: What about the mass density (328.15 K, x1 = 0.0695) of the same molecule?
Answer: 1108.1 ± 1 kg/m3

Question: What about the mass density (328.15 K, x1 = 0.0965) of the same molecule?
Answer: 1133.5 ± 1 kg/m3

Question: And the mass density (328.15 K, x1 = 0.1196)?
Answer: 1149.4 ± 1 kg/m3

Question: And the mass density (328.15 K, x1 = 0.1522)?
Answer: 1167.1 ± 1.1 kg/m3

Question: What about the mass density (328.15 K, x1 = 0.2054) of the same molecule?
Answer: 1187.9 ± 1.1 kg/m3

Question: And the mass density (328.15 K, x1 = 0.219)?
Answer: 1191.9 ± 1.2 kg/m3

Question: And the mass density (328.15 K, x1 = 0.2438)?
Answer: 1198.8 ± 1.2 kg/m3

Question: What about the mass density (328.15 K, x1 = 0.2754) of the same molecule?
Answer: 1206.1 ± 1.3 kg/m3

Question: And the viscosity (333.15 K, x1 = 0.0316)?
Answer: 0.817 ± 0.082 mPa·s

Question: What about the viscosity (333.15 K, x1 = 0.0695) of the same molecule?
Answer: 1.504 ± 0.15 mPa·s

Question: What about the viscosity (333.15 K, x1 = 0.0965) of the same molecule?
Answer: 2.234 ± 0.22 mPa·s

Question: What about the viscosity (333.15 K, x1 = 0.1196) of the same molecule?
Answer: 3.003 ± 0.3 mPa·s

Question: What about the viscosity (333.15 K, x1 = 0.1522) of the same molecule?
Answer: 4.616 ± 0.46 mPa·s

Question: What about the viscosity (333.15 K, x1 = 0.2054) of the same molecule?
Answer: 8.297 ± 0.83 mPa·s

Question: What about the viscosity (333.15 K, x1 = 0.219) of the same molecule?
Answer: 9.561 ± 0.96 mPa·s

Question: And the viscosity (333.15 K, x1 = 0.2438)?
Answer: 12.38 ± 1.2 mPa·s

Question: And the viscosity (333.15 K, x1 = 0.2754)?
Answer: 17.33 ± 1.7 mPa·s

Question: What about the mass density (333.15 K, x1 = 0.0316) of the same molecule?
Answer: 1053.5 ± 1.1 kg/m3

Question: And the mass density (333.15 K, x1 = 0.0695)?
Answer: 1104.7 ± 1 kg/m3

Question: And the mass density (333.15 K, x1 = 0.0965)?
Answer: 1130 ± 1 kg/m3

Question: And the mass density (333.15 K, x1 = 0.1196)?
Answer: 1145.9 ± 1 kg/m3

Question: What about the mass density (333.15 K, x1 = 0.1522) of the same molecule?
Answer: 1163.6 ± 1.1 kg/m3

Question: And the mass density (333.15 K, x1 = 0.2054)?
Answer: 1184.4 ± 1.1 kg/m3

Question: And the mass density (333.15 K, x1 = 0.219)?
Answer: 1188.5 ± 1.2 kg/m3

Question: What about the mass density (333.15 K, x1 = 0.2438) of the same molecule?
Answer: 1195.4 ± 1.2 kg/m3

Question: And the mass density (333.15 K, x1 = 0.2754)?
Answer: 1202.7 ± 1.3 kg/m3

Question: What about the viscosity (338.15 K, x1 = 0.0316) of the same molecule?
Answer: 0.74 ± 0.074 mPa·s

Question: What about the viscosity (338.15 K, x1 = 0.0695) of the same molecule?
Answer: 1.374 ± 0.14 mPa·s

Question: What about the viscosity (338.15 K, x1 = 0.0965) of the same molecule?
Answer: 1.965 ± 0.2 mPa·s

Question: And the viscosity (338.15 K, x1 = 0.1196)?
Answer: 2.724 ± 0.27 mPa·s

Question: What about the viscosity (338.15 K, x1 = 0.1522) of the same molecule?
Answer: 3.961 ± 0.4 mPa·s

Question: And the viscosity (338.15 K, x1 = 0.2054)?
Answer: 7.055 ± 0.71 mPa·s

Question: What about the viscosity (338.15 K, x1 = 0.219) of the same molecule?
Answer: 8.079 ± 0.81 mPa·s

Question: What about the viscosity (338.15 K, x1 = 0.2438) of the same molecule?
Answer: 10.39 ± 1 mPa·s

Question: And the viscosity (338.15 K, x1 = 0.2754)?
Answer: 14.54 ± 1.5 mPa·s

Question: And the mass density (338.15 K, x1 = 0.0316)?
Answer: 1050.5 ± 1.1 kg/m3

Question: And the mass density (338.15 K, x1 = 0.0695)?
Answer: 1101.2 ± 1 kg/m3

Question: And the mass density (338.15 K, x1 = 0.0965)?
Answer: 1126.5 ± 1 kg/m3

Question: What about the mass density (338.15 K, x1 = 0.1196) of the same molecule?
Answer: 1142.3 ± 1 kg/m3

Question: What about the mass density (338.15 K, x1 = 0.1522) of the same molecule?
Answer: 1160.1 ± 1.1 kg/m3

Question: And the mass density (338.15 K, x1 = 0.2054)?
Answer: 1180.9 ± 1.1 kg/m3

Question: And the mass density (338.15 K, x1 = 0.219)?
Answer: 1185.1 ± 1.2 kg/m3

Question: And the mass density (338.15 K, x1 = 0.2438)?
Answer: 1192 ± 1.2 kg/m3

Question: And the mass density (338.15 K, x1 = 0.2754)?
Answer: 1199.3 ± 1.3 kg/m3

Question: What about the viscosity (343.15 K, x1 = 0.0316) of the same molecule?
Answer: 0.677 ± 0.068 mPa·s

Question: And the viscosity (343.15 K, x1 = 0.0695)?
Answer: 1.288 ± 0.13 mPa·s

Question: What about the viscosity (343.15 K, x1 = 0.0965) of the same molecule?
Answer: 1.733 ± 0.17 mPa·s

Question: What about the viscosity (343.15 K, x1 = 0.1196) of the same molecule?
Answer: 2.554 ± 0.26 mPa·s

Question: What about the viscosity (343.15 K, x1 = 0.1522) of the same molecule?
Answer: 3.412 ± 0.34 mPa·s

Question: And the viscosity (343.15 K, x1 = 0.2054)?
Answer: 6.064 ± 0.61 mPa·s

Question: And the viscosity (343.15 K, x1 = 0.219)?
Answer: 7.061 ± 0.71 mPa·s

Question: What about the viscosity (343.15 K, x1 = 0.2438) of the same molecule?
Answer: 8.615 ± 0.87 mPa·s

Question: What about the viscosity (343.15 K, x1 = 0.2754) of the same molecule?
Answer: 12.93 ± 1.3 mPa·s

Question: And the mass density (343.15 K, x1 = 0.0316)?
Answer: 1047.2 ± 1.1 kg/m3

Question: What about the mass density (343.15 K, x1 = 0.0695) of the same molecule?
Answer: 1097.8 ± 1 kg/m3

Question: What about the mass density (343.15 K, x1 = 0.0965) of the same molecule?
Answer: 1122.9 ± 1 kg/m3

Question: What about the mass density (343.15 K, x1 = 0.1196) of the same molecule?
Answer: 1138.7 ± 1 kg/m3

Question: What about the mass density (343.15 K, x1 = 0.1522) of the same molecule?
Answer: 1156.5 ± 1.1 kg/m3

Question: What about the mass density (343.15 K, x1 = 0.2054) of the same molecule?
Answer: 1177.5 ± 1.1 kg/m3

Question: What about the mass density (343.15 K, x1 = 0.219) of the same molecule?
Answer: 1181.6 ± 1.2 kg/m3

Question: And the mass density (343.15 K, x1 = 0.2438)?
Answer: 1188.5 ± 1.2 kg/m3

Question: What about the mass density (343.15 K, x1 = 0.2754) of the same molecule?
Answer: 1196 ± 1.3 kg/m3
